Tested on: acyl-CoA: cholesterol acyltransferase (ACAT)
Test: ACAT inhibiting effect in vitro (rat liver microsome, method of Ross et al.)
Type: biochemical
Conditions: rat liver microsome (Sprague-Dawley) enzyme fraction, 100 μM [14C]oleoyl-CoA, 37° C., 4 minutes; stated in words only
Procedure: ACAT inhibiting activities were determined according to the improved test method in vitro reported by Ross et al. [A. C. Ross etal., J. Biol. Chem., 259, 815-819(1984)].
According to the procedure described in A. C. Ross et al., J. Biol. Chem., 257, 2453-2459(1982), rat liver microsome was prepared from a rat of Sprague-Dawley strain fasted overnight to make an enzyme fraction. To a 0.15M potassium phosphate buffer solution (pH 7.4) containing 100 μM of [14C]oleoyl-CoA, 2 mM of dithiothreitol and 80 μM of bovine serum albumin were added 60-100 μg of the microsome fraction, and a 5 μl solution of a test compound in dimethylsulfoxide (2.5% v/v) was added to the above phosphate buffer solution to make 200 μl. The mixture was warmed at 37° C. for 4 minutes and then the enzyme reaction was stopped by adding 1 ml of ethanol under stirring. To the reaction mixture were added 2 ml of hexane. After stirring, 1 ml of a hexane solution was taken out and the solvent was evaporated in a stream of nitrogen. Cholesteryl oleate resulted from the enzyme reaction was separated by thin layer chromatography through silica gel using a 85:15:1 mixture of hexane, diethyl ether and acetic acid as a developing solvent. An ACAT activity was determined by measuring radioactivity and a inhibiting rate (%) was calculated by comparing a control activity with that of the test compound at given concentrations.

SMILES	ACAT inhibiting activity
CC(C)c1cccc(C(C)C)c1NC(=O)CC1c2ccccc2Oc2ccccc21 [Example 1, N-[2,6-Bis (1-methylethyl)phenyl]-2-(9H-xanthen-9-yl)acetamide]	excellent inhibiting activity
CCc1cccc(Sc2ccccc2)c1NC(=O)CC1c2ccccc2Oc2ccccc21 [Example 11, N-(2- Ethyl-6-phenylthiophenyl)-2-(9H-xanthen-9-yl)acetamide]	excellent inhibiting activity
CC(C)c1cccc(C(C)C)c1NC(=O)C(C)C1c2ccccc2Oc2ccccc21 (stereo not drawn) [Example 16, N-[2,6-Bis(1-methylethyl)phenyl]-2-(9H-xanthen-9-yl)propanamide]	excellent inhibiting activity
CC(C)c1cccc(C(C)C)c1NC(=O)CC1(C)c2ccccc2Oc2ccccc21 [Example 18-B, N-[2,6-bis(1-methylethyl)phenyl]-2-(9-methyl-9H-xanthen-9-yl)acetamide]	excellent inhibiting activity

Other lines, results leading:

ACAT inhibiting activity	SMILES
excellent inhibiting activity	CCc1cccc(CC)c1NC(=O)CC1c2ccccc2Oc2ccccc21 [Example 2, N-(2,6-Diethylphenyl)-2-(9H-xanthen-9-yl)acetamide]
excellent inhibiting activity	CCc1cccc(CSC)c1NC(=O)CC1c2ccccc2Oc2ccccc21 [Example 3, N-(2-Ethyl-6-methylthiomethylphenyl)-2-(9H-xanthen-9-yl)acetamide]
excellent inhibiting activity	CCc1cccc(SC)c1NC(=O)CC1c2ccccc2Oc2ccccc21 [Example 9, N-(2-Ethyl-6-methylthiophenyl)-2-(9H-xanthen-9-yl)acetamide]
excellent inhibiting activity	CCc1cccc(SC(C)C)c1NC(=O)CC1c2ccccc2Oc2ccccc21 [Example 10, N-(2-Ethyl-6-isopropylthiophenyl)-2-(9H-xanthen-9-yl)acetamide]
excellent inhibiting activity	CCc1cccc(OC(C)C)c1NC(=O)CC1c2ccccc2Oc2ccccc21 [Example 25, N-(2-Ethyl-6-isopropoxyphenyl)-2-(9H-xanthen-9-yl)acetamide]

Source: US5563169A, “Tricyclic heterocyclic compound” (Sankyo Company, Limited, priority 1991, dated 1996)
